Experimental data as given in patent US20210299034A1, “A Topical Composition” (Conopco, Inc., d/b/a UNILEVER, priority 2018, published 2021).

System: Human primary melanocytes
Test: Melanin content assay in α-MSH-stimulated melanocytes
Type: cell-based
Settings: for Melanin Content (%) Average ± SD: 72 h, untreated control (A) = 100
Procedure: Human primary melanocytes were grown in melanocytes growth medium (MGM) with human melanocyte growth supplement. 500 μL/well (5×10^4 cells/well) of this solution was plated in a 24 wells plate and incubated in an incubator (Thermo Scientific, Model 3111) at 37° C. with 5% CO2 atmosphere.
After 24 h of incubation, cell cultures were treated with the test actives (as outlined in table 1) dissolved in 20% ethanol. After 1 h of actives addition, 10 nM of α-MSH was added. The cells were again incubated for 72 h in an incubator. At the end of this incubation period, the culture medium was replaced with 120 μL/well of melanin content assay reagent (10% Dimethyl sulfoxide in 1 N sodium hydroxide) and incubated for 1 h at 60° C. in a shaker incubator. The supernatant was then transferred to a 384 well plate. The absorbance was measured at 405 nm with a microtiter plate reader (Genios Pro, Tecan M 1000).
In the first set of experiments, human primary melanocytes were subjected to treatments as outlined in table 1 below.

Compound	Melanin Content (%) Average ± SD (4-ER 50 μM, 10 nM α-MSH added 1 h after active, absorbance 405 nm) [%]	Melanin content, comparison in words (10 nM MSH, example 1 vs black tea (example D), example B vs untreated control (example A))	Melanin Content (%) Average ± SD (MSH 10 nM alone, no test active) [%]
CCc1ccc(O)cc1O [C, 4-ethyl resorcinol]	68 ± 12.7	–	–
α-Melanocyte stimulating hormone [B]	–	over and above the control cells	121 ± 9.7
